Reference: PMC8621456, “New Investigations with Lupane Type A-Ring Azepane Triterpenoids for Antimycobacterial Drug Candidate Design” (International Journal of Molecular Sciences, 2021)
Converted amounts (≈) assume the structure as drawn. “And” between values parts separate entries of the source, which are not always exact repeats. Equal entries are not always repeated. Where two headings read alike, the source gives them in different places. Marks after values point to notes of the source that are not given here.

What was measured:
[1] = system: M. abscessus (ATCC 19977); test: Ex vivo efficacy in infected THP-1 macrophages; format: cell-based, Mycobacterium abscessus; details: Mycobacteroides abscessus
M. avium (ATCC 25291) [2] = test: MIC determination against NTM strains, microbroth dilution; format: cell-based; details: Mycobacterium avium, ATCC25291; NTM strain
M. tuberculosis H37Rv [3] = test: microbe, parasite or virus in culture; format: cell-based; details: Mycobacterium tuberculosis, read-out: MIC (µM) H37Rv
[4] = system: M. avium complex (ATCC 700,891 MAC 101); test: Ex vivo efficacy in infected THP-1 macrophages; format: cell-based; details: Mycobacterium avium
[5] = system: M. abscessus (ATCC 19977); test: MIC determination against NTM strains, microbroth dilution; format: cell-based, Mycobacterium abscessus; details: Mycobacteroides abscessus
M. tuberculosis H37Rv [6] = test: Fractional inhibitory concentration (FIC), checkerboard with standard of care drugs; format: cell-based, Mycobacterium tuberculosis
M. avium (ATCC 25291) [7] = details: compound 1 included as reference; ref [26],[27],[28]; cited from earlier work
M. tuberculosis H37Rv [8] = details: compound 1 included as reference; ref [26],[27],[28]; cited from earlier work
[9] = system: M. abscessus (ATCC 19977); details: compound 1 included as reference; ref [26],[27],[28]; cited from earlier work
H37Rv (katG^del) = details: compound 1 included as reference; ref [26],[27],[28]; cited from earlier work
MTB H37Rv = details: ref [26]; cited from earlier work
[10] = ATCC19977, THP-1, read-out: M. abscessus Ex Vivo Efficacy (>90% Inhibition µM)
[11] = ATCC700, THP-1, read-out: M. avium Ex Vivo Efficacy (>90% Inhibition µM)
[12] = ATCC19977, read-out: MIC (µM) M. abscessus 19977
[13] = ATCC19977, NTM strain, read-out: MIC (µM) M. abscessus 19977
[14] = ATCC19977, infected THP-1 macrophages, concentration for >90% inhibition, read-out: M. abscessus Ex Vivo Efficacy (>90% Inhibition µM)
[15] = ATCC700, infected THP-1 macrophages, concentration for >90% inhibition, read-out: M. avium Ex Vivo Efficacy (>90% Inhibition µM)

Row | Compound | MIC (M. avium (ATCC 25291) [2]) [µM] | MIC (M. tuberculosis H37Rv [3]) [µM] | MIC [5, 13] [µM] | also measured
1 | C=C(C)[C@@H]1CC[C@]2(COC(=O)c3cccnc3)CC[C@]3(C)[C@H](CC[C@@H]4[C@@]5(C)CCCNC(C)(C)[C@@H]5CC[C@]43C)[C@@H]12 [Compound 5] | 1 (≈ 0.547 µg/mL) | 8 (≈ 4.37 µg/mL) | – | IC90 [1, 10]: > 128 µM; IC90 [4, 11]: 32 µM; MIC [5, 12]: 16 µM (≈ 8.75 µg/mL)
2 | NCC[C@H](O)C(=O)N[C@@H]1C[C@H](N)[C@@H](O[C@H]2O[C@H](CN)[C@@H](O)[C@H](O)[C@H]2O)[C@H](O)[C@H]1O[C@H]1O[C@H](CO)[C@@H](O)[C@H](N)[C@H]1O [Amikacin, reference compound] | – | – | 8 (≈ 4.68 µg/mL) | –
3 | C=C(C)[C@@H]1CC[C@]2(C(=O)NC(CO)Cc3ccccc3)CC[C@]3(C)[C@H](CC[C@@H]4[C@@]5(C)CCCNC(C)(C)[C@@H]5CC[C@]43C)[C@@H]12 (stereo partly drawn) [Compound 8] | 4 (≈ 2.36 µg/mL) | 8 (≈ 4.71 µg/mL) | – | IC90 [1, 10]: > 128 µM; IC90 [4, 11]: 16 µM; MIC [5, 12]: 32 µM (≈ 18.8 µg/mL)
4 | CC[C@H]1OC(=O)[C@H](C)[C@@H](O[C@H]2C[C@@](C)(OC)[C@@H](O)[C@H](C)O2)[C@H](C)[C@@H](O[C@@H]2O[C@H](C)C[C@H](N(C)C)[C@H]2O)[C@](C)(OC)C[C@@H](C)C(=O)[C@H](C)[C@@H](O)[C@]1(C)O [Clarithromycin, reference compound] | 0.125 (≈ 0.0935 µg/mL) | – | 4 (≈ 2.99 µg/mL) | IC90 [1, 14]: 128 µM; IC90 [4, 15]: 8 µM
5 | C=C(C)[C@@H]1CC[C@]2(COS(=O)(=O)c3ccc(C)cc3)CC[C@]3(C)[C@H](CC[C@@H]4[C@@]5(C)CCCNC(C)(C)[C@@H]5CC[C@]43C)[C@@H]12 [Compound 6] | 1 (≈ 0.596 µg/mL) | 8 (≈ 4.77 µg/mL) | – | MIC [5, 12]: 8 µM (≈ 4.77 µg/mL)
6 | O=[N+]([O-])c1cn2c(n1)OC[C@@H](OCc1ccc(OC(F)(F)F)cc1)C2 [Pretomanid, reference compound] | – | 0.125 (≈ 0.0449 µg/mL) | – | –
7 | C=C(C)[C@@H]1CC[C@]2(C=NNC(=O)c3ccncc3)CC[C@]3(C)[C@H](CC[C@@H]4[C@@]5(C)CCCNC(C)(C)[C@@H]5CC[C@]43C)[C@@H]12 [Compound 7] | 4 (≈ 2.24 µg/mL) | – | 8 (≈ 4.47 µg/mL) | FIC value with Rifampin (M. tuberculosis H37Rv [6]): 1.0 Additive; FIC value with Ethambutol (M. tuberculosis H37Rv [6]; combination with Ethambutol): 1.0; FIC value with Isoniazid (M. tuberculosis H37Rv [6]; combination with Isoniazid): 0.8; IC90 [1, 14]: > 128 µM; IC90 [4, 15]: 128 µM
8 | C=C(C)[C@@H]1CC[C@]2(COC(C)=O)CC[C@]3(C)[C@H](CC[C@@H]4[C@@]5(C)CCCN(C(C)=O)C(C)(C)[C@@H]5CC[C@]43C)[C@@H]12 [Compound 11] | 4 (≈ 2.1 µg/mL) | 8 (≈ 4.21 µg/mL) | 16 (≈ 8.41 µg/mL) | –
9 | CC1(C)CCC23CCC4(C)C(CCC5C6(C)CCCNC(C)(C)C6CCC54C)C2C1OC3 (stereo not drawn) [Compound 17] | 0.5 (≈ 0.221 µg/mL) | 16 (≈ 7.07 µg/mL) | 16 (≈ 7.07 µg/mL) | IC90 [1, 14]: > 128 µM; IC90 [4, 15]: > 128 µM
10 | C=C(C)[C@@H]1CC[C@]2(CN)CC[C@]3(C)[C@H](CC[C@@H]4[C@@]5(C)CCCNC(C)(C)[C@@H]5CC[C@]43C)[C@@H]12 [Compound 3] | 2 (≈ 0.882 µg/mL) | 8 (≈ 3.53 µg/mL) | – | FIC interpretation with Isoniazid (M. tuberculosis H37Rv [6]): 1.0 Additive (key: FIC VALUE ≤ 0.5 (Synergistic); 0.5–1.0 (Additive); 1.0–4.0 (Indifferent); > 4.0 (Antagonistic)); FIC interpretation with Rifampin (M. tuberculosis H37Rv [6]): 1.0 Additive (key: FIC VALUE ≤ 0.5 (Synergistic); 0.5–1.0 (Additive); 1.0–4.0 (Indifferent); > 4.0 (Antagonistic)); FIC value with Ethambutol (M. tuberculosis H37Rv [6]): 1.5 Indifferent; FIC value with Isoniazid (M. tuberculosis H37Rv [6]): 1.0 Additive; FIC value with Rifampin (M. tuberculosis H37Rv [6]): 1.0 Additive; IC90 [1, 10]: > 128 µM; IC90 [4, 11]: > 128 µM; MIC [5, 12]: 16 µM (≈ 7.05 µg/mL)
11 | NNC(=O)c1ccncc1 [Isoniazid, reference compound] | – | 0.03 (≈ 0.00411 µg/mL) | – | –
12 | C=C(CN=[N+]=[N-])[C@@H]1CC[C@]2(COC(C)=O)CC[C@]3(C)[C@H](CC[C@@H]4[C@@]5(C)CCCNC(C)(C)[C@@H]5CC[C@]43C)[C@@H]12 [Compound 15] | 64 (≈ 33.6 µg/mL) | > 32 | > 64 | –
13 | C=C(C)[C@@H]1CC[C@]2(C(=O)NC3CCCCC3)CC[C@]3(C)[C@H](CC[C@@H]4[C@@]5(C)CCCNC(C)(C)[C@@H]5CC[C@]43C)[C@@H]12 [Compound 10] | 2 (≈ 1.07 µg/mL) | ≤ 4 | – | IC90 [1, 10]: > 128 µM; IC90 [4, 11]: 64 µM; MIC [5, 12]: 8 µM (≈ 4.3 µg/mL)
14 | C=C(C)[C@@H]1CC[C@]2(COC(=O)c3ccccc3C(=O)O)CC[C@]3(C)[C@H](CC[C@@H]4[C@@]5(C)CCCNC(C)(C)[C@@H]5CC[C@]43C)[C@@H]12 [Compound 4] | 4 (≈ 2.36 µg/mL) | 16 (≈ 9.44 µg/mL) | – | MIC [5, 12]: 16 µM (≈ 9.44 µg/mL)
15 | COc1c(N2C[C@@H]3CCCN[C@@H]3C2)c(F)cc2c(=O)c(C(=O)O)cn(C3CC3)c12 [Moxifloxacin, reference compound] | – | 0.06 (≈ 0.0241 µg/mL) | – | –
16 | C=C(C)[C@@H]1CC[C@]2(C)CC[C@]3(C)[C@H](CC[C@@H]4[C@@]5(C)CCCNC(C)(C)[C@@H]5CC[C@]43C)[C@@H]12 [Compound 2, azepano-lupeol] | 1 (≈ 0.426 µg/mL) | ≤ 4 | ≤ 4 | IC90 [1, 14]: > 128 µM; IC90 [4, 15]: > 128 µM
17 | C=C(C)[C@@H]1CC[C@]2(C(=O)N3CCN(C)CC3)CC[C@]3(C)[C@H](CC[C@@H]4[C@@]5(C)CCCNC(C)(C)[C@@H]5CC[C@]43C)[C@@H]12 [Compound 9] | 4 (≈ 2.15 µg/mL) | ≤ 4 | – | FIC value with Ethambutol (M. tuberculosis H37Rv [6]): 2.5 Indifferent; FIC value with Rifampin (M. tuberculosis H37Rv [6]): 1.5 Indifferent; IC90 [1, 10]: > 128 µM; IC90 [4, 11]: > 128 µM; MIC [5, 12]: ≤ 4 µM
18 | C=C(C)[C@@H]1CC[C@]2(COC(C)=O)CC[C@]3(C)[C@H](CC[C@@H]4[C@@]5(C)CCCN(C(=O)c6cccnc6)C(C)(C)[C@@H]5CC[C@]43C)[C@@H]12 [Compound 12] | 4 (≈ 2.36 µg/mL) | 32 (≈ 18.8 µg/mL) | 8 (≈ 4.71 µg/mL) | –
19 | C#CCNC(=O)[C@]12CC[C@@H](C(=C)C)[C@@H]1[C@H]1CC[C@@H]3[C@@]4(C)CCCNC(C)(C)[C@@H]4CC[C@@]3(C)[C@]1(C)CC2 [Compound 20, 17-(Propargyl)-3-deoxo-3a-homo-3a-aza-lup-20(29)-en-carboxamide] | 4 (≈ 1.97 µg/mL) | ≤ 4 | 16 (≈ 7.88 µg/mL) | –
20 | CO[C@H]1/C=C/O[C@@]2(C)Oc3c(C)c(O)c4c(O)c(c(/C=N/N5CCN(C)CC5)c(O)c4c3C2=O)NC(=O)/C(C)=C\C=C\[C@H](C)[C@H](O)[C@@H](C)[C@@H](O)[C@@H](C)[C@H](OC(C)=O)[C@@H]1C [Rifampin, reference compound] | 0.0625 (≈ 0.0514 µg/mL) | ≤ 0.004 | – | –
21 | CC(=O)[C@@H]1CC[C@]2(COS(=O)(=O)c3ccc(C)cc3)CC[C@]3(C)[C@H](CC[C@@H]4[C@@]5(C)CCCNC(C)(C)[C@@H]5CC[C@]43C)[C@@H]12 [Compound 13] | 2 (≈ 1.2 µg/mL) | 32 (≈ 19.1 µg/mL) | 16 (≈ 9.57 µg/mL) | –
22 | CC(C)=C1CCC=C2CC[C@]3(C)[C@H](CC[C@@H]4[C@@]5(C)CCCNC(C)(C)[C@@H]5CC[C@]43C)[C@H]21 [Compound 18] | 4 (≈ 1.69 µg/mL) | 16 (≈ 6.78 µg/mL) | 32 (≈ 13.6 µg/mL) | IC90 [1, 14]: > 128 µM; IC90 [4, 15]: 128 µM
23 | C=C(C)[C@@H]1CC[C@]2(CO)CC[C@]3(C)[C@H](CC[C@@H]4[C@@]5(C)CCCNC(C)(C)[C@@H]5CC[C@]43C)[C@@H]12 [Compound 1, azepanobetulin] | – | – | – | IC90 [1, 14]: > 128 µM; MIC (µM) M. avium 25291 (M. avium (ATCC 25291) [7]): 0.125 µM and 0.125 * µM; MIC (µM) H37Rv (M. tuberculosis H37Rv [8]): 4 * µM; IC90 [4, 15]: 8 µM; MIC (µM) M. abscessus 19977 [9]: 8 * µM; MIC (µM) H37Rv (katG^del) (H37Rv (katG^del)): 2 * µM
24 | C=C(CBr)[C@@H]1CC[C@]2(COC(C)=O)CC[C@]3(C)[C@H](CC[C@@H]4[C@@]5(C)CCCNC(C)(C)[C@@H]5CC[C@]43C)[C@@H]12 [Compound 14] | 0.0625 (≈ 0.0352 µg/mL) | > 32 | > 64 | –
25 | A-azepano-28-cinnamoyloxybetulin | – | – | – | MBC against MTB H37Rv (MTB H37Rv): 4 µM; MIC against MTB H37Rv (MTB H37Rv): 2 µM
